The target of the assay is Potassium voltage-gated channel subfamily KQT member 4 (Homo sapiens) (UniProt P56696). The experiment in a line: KCNQ4 thallium flux concentration-response – KCNQ4-expressing cells, selectivity assay for KCNQ2 activator project, dose response (AID 504416). The note with it: FluxOR thallium flux fluorescence.

Active and inactive are the calls of the source.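 The calls were made as follows: active = raises or lowers thallium flux through KCNQ4 potassium channels at some tested dose, with a fitted dose response curve; inactive = no effect at any dose or no curve.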

Sequence of Potassium voltage-gated channel subfamily KQT member 4 (Homo sapiens) (P56696 whole entry, looked up): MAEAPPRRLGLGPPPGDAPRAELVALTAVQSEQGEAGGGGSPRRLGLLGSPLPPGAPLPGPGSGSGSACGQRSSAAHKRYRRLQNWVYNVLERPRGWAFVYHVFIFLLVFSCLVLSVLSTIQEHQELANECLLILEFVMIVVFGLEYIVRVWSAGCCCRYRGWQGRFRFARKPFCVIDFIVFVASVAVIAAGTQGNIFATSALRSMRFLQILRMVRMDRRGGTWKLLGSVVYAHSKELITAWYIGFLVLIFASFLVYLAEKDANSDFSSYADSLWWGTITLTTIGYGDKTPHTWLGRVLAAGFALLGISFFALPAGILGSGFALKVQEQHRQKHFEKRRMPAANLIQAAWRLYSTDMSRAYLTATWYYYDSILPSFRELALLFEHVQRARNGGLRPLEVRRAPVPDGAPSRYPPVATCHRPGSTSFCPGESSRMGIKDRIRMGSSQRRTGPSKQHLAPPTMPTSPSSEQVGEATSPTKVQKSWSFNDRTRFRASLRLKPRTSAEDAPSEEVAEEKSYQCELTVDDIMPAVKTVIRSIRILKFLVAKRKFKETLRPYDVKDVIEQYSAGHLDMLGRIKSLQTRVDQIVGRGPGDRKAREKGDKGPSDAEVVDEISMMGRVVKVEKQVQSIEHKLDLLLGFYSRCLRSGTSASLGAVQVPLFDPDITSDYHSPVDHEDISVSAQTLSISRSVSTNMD

Turning to `Cc1cc(C)c(NC(=O)C2CC3CCC2C3)c(C)c1` (configuration not stated), the EC50 was 2400 nM. Regarding `Cc1cccc(C)c1NC(=O)C1CC2CCC1C2` (configuration not stated), for the setting “at 30 µM (top of the series)”, the potentiation entry was “inactive”.

(Values after PubChem BioAssay AID504416 (Johns Hopkins Ion Channel Center, 2011).)
